These are literature values, as cited in patent publication US10934070B2, “Anti-scalping pharmaceutical packaging film” (BEMIS COMPANY, INC., priority 2014, dated 2021).

The conditions of the data set: at 25° C.

Molecules are shown by their SMILES.

Usually vapor pressure stands for the pressure of vapour in equilibrium with the condensed phase. Consider `CN1CCCC1c1cccnc1` (stereo not shown) [Nicotine], for which the vapor pressure was 5.65 Pa.
